From patent US20260008746A1, “CATIONIC LIPID COMPOUND WITH HIGH EFFICIENCY, LOW TOXICITY AND STABLE EXPRESSION, AND COMPOSITION COMPRISNG SAME” (HANGZHOU TIANLONG PHARMACEUTICAL CO., LTD, priority 2023, published 2026) come the findings set out here.

In data set [1] the test system is BALB/C mice. Briefly: In vivo imaging of Fluc-mRNA expression in mice delivered by LNP formulations. Conditions: for average radiation intensity, 6 h / average radiation intensity, 24 h / average radiation intensity, 48 h / average radiation intensity, 7 d: LNP containing 10 pg Fluc-mRNA, intramuscular, female BALB/C mice. The method, then: The LNP formulation containing […] Fluc-mRNA was injected intramuscularly into female BALB/C mice aged 4-6 weeks old and weighed 17-19 g, and the mice were intraperitoneally injected with fluorescent imaging substrate at specific time points after administration (6h, 24 h, 48h and 7d), where the mice were allowed to move freely for 5 minutes, and then the average radiation intensity (corresponding to fluorescence expression intensity) of the protein expression of the mRNA carried by the LNP in the mice was detected by the IVIS Spectrum small animal in vivo imaging device. The test results are shown in Tables 11 to 14 and FIGS. 12 to 14.

Data set [2] has as its system 293T cells. The experiment in a line: Cell survival rate determination (CCK-8). Format: cell-based. As to conditions: for Cell survival rate (%): LNP formulation containing 1.5 μg Fluc-mRNA, 24 hours, CCK-8, absorbance at 450 nm; for cell survival rate lower than that of YK-101: cell survival rate of YK-101 minus that of named substance; for cell survival rate lower than that of YK-107: cell survival rate of YK-107 minus that of named substance; for cell survival rate lower than that of YK-108: cell survival rate of YK-108 minus that of named substance. The method, then: (§1) Cell recovery and passage: 293T cells were recovered, cultured in a culture dish, and passaged to the required number of cells.
(§2) Seeding plate: The cells in the culture dish were digested and counted. Cells were spread in a 96-well plate at 10,000 cells per well and in a 12-well plate at 150,000 cells per well. Cells were cultured overnight until the cells adhered to the wall.
An LNP formulation containing 1.5 μg of Fluc-mRNA (the cater component of the LNP formulation were cationic lipid, neutral lipid, structured lipid and polymer-conjugated lipid with a molar ratio of 49: 10: 39.5: 1.5, wherein the cationic lipid was listed in Table 1) and the formulation of Lipofectamine 3000 were added to the cell culture medium of a 96-well plate, and further cultivated for 24 hours. 10 μL of CCK-8 solution was then added to each well, and the culture plate was incubated in an incubator for 1 hour. The absorbance at 450 nm was measured by a microplate reader.

For data set [3], the system named is 293T cells. Briefly: Fluorescent detection of Fluc-mRNA (cell transfection efficiency of LNP formulations). Format: cell-based. As to conditions: for Relative light unit (RLU): LNP formulation containing 0.3 μg Fluc-mRNA, 96-well plate, 24 hours; for Multiples (YK-101): RLU of YK-101 / RLU of named substance; for Multiples (YK-107): RLU of YK-107 / RLU of named substance; for Multiples (YK-108): RLU of YK-108 / RLU of named substance; for fluorescence absorption value, times that of HHMA: RLU of named substance / RLU of HHMA; for fluorescence absorption value, times that of Lipofectamine 3000: RLU of named substance / RLU of Lipofectamine 3000; for Ratio relative to SM-102: RLU of named substance / RLU of SM-102; for Fluc-mRNA expression signal intensity, times that of compound 21: RLU of named substance / RLU of compound 21; for fluorescence absorption value, times that of compound 23: RLU of named substance / RLU of compound 23. The method, then: as §1, §2
Cell recovery and passage: the method was the same as in Example 3.
Seeding plate: the method was the same as in Example 3.
An LNP formulation containing 0.3 μg of Fluc-mRNA (the carrier components of the LNP formulation were cationic lipid, neutral lipid, structured lipid and polymer-conjugated lipid with a molar ratio of 49:10:39.5:1.5, wherein the cationic lipid was listed in Table 1) was added to the cell culture medium of a 96-well plate, and further incubated for 24 hours. The corresponding reagent was added according to the instructions of the Gaussia Luciferase Assay Kit, and the fluorescence expression intensity of each well was detected by an IVIS fluorescence detection system. This test verified the transfection efficiencies of LNP formulations in cells, see Tables 3-6 for specific test results.

Setting [4] is: highest multiple, time point not stated.

With `CCCCCCCCC(CCCCCCCC)COC(=O)CCCCCN(CCO)CCCCCC(=O)OCCCSSCCCCC` [YK-111], in data set [1] (6 h), the “average radiation intensity of YK-101, times that of named substance” value was 2.3 times; the “average radiation intensity of YK-107, times that of named substance” value came to 2.4 times; the “average radiation intensity of YK-108, times that of named substance” value is 3.0 times; the “average radiation intensity, 6 h” value amounted to 661800. Besides, in data set [1] (24 h), the “average radiation intensity of YK-101, times that of named substance” value is 10.6 times; the “average radiation intensity of YK-107, times that of named substance” value amounted to 13.1 times; the “average radiation intensity of YK-108, times that of named substance” value stood at 14.1 times; the “average radiation intensity, 24 h” value was 99777. In addition, in data set [1] (48 h), the “average radiation intensity of YK-101, times that of named substance” value was 9.2 times; the “average radiation intensity of YK-107, times that of named substance” value amounted to 11.1 times; the “average radiation intensity of YK-108, times that of named substance” value amounted to 11.3 times; the “average radiation intensity, 48 h” value was 20312. For the same molecule, in data set [1] (7 d), the “average radiation intensity of YK-101, times that of named substance” value was found to be 2.4 times; the “average radiation intensity of YK-107, times that of named substance” value is given as 2.6 times; the “average radiation intensity of YK-108, times that of named substance” value is reported as 2.8 times; the “average radiation intensity, 7 d” value is recorded as 5050. In addition, in data set [2], the “Cell survival rate (%)” value was 75.76%, the “cell survival rate lower than that of YK-101” value was determined as 14.36%, the “cell survival rate lower than that of YK-107” value is reported as 14.69% and the “cell survival rate lower than that of YK-108” value is on record as 14.10%. Further, in data set [3], the “cell transfection efficiency, times that of YK-110” value is 5 times; the “Relative light unit (RLU)” value was determined as 1328301 RLU; the “Multiples (YK-101)” value is on record as 15.31; the “Multiples (YK-107)” value came out at 16.83. In data set [3], the “Multiples (YK-108)” value is 18.57; the “fluorescence absorption value, times that of HHMA” value was determined as 0.65 times; the “fluorescence absorption value, times that of Lipofectamine 3000” value was determined as 1.24 times; the “Ratio relative to SM-102” value is given as 0.87. In addition, in data set [3], the “Fluc-mRNA expression signal intensity, times that of compound 21” value was 0.96 times and the “fluorescence absorption value, times that of compound 23” value is given as 1.03 times.

`CCCCCCCCCCOC(=O)CCCN(CCCCCC(=O)OCCC(CCCCCC)CCCCCC)CC(O)CO` (stereo not drawn) [YK-114, 3-hexylnonyl 6-(4-(decyloxy)-4-oxobutyl)((2,3-dihydroxypropyl)amino)hexanoate]: in data set [1] (6 h), the “average radiation intensity of YK-101, times that of named substance” value came to 2.8 times; the “average radiation intensity of YK-107, times that of named substance” value is given as 3.0 times; the “average radiation intensity of YK-108, times that of named substance” value is given as 3.8 times; the “average radiation intensity, 6 h” value turned out to be 535760. For the same molecule, in data set [1] (24 h), the “average radiation intensity of YK-101, times that of named substance” value is given as 11.3 times; the “average radiation intensity of YK-107, times that of named substance” value was determined as 13.9 times; the “average radiation intensity of YK-108, times that of named substance” value stood at 15.0 times; the “average radiation intensity, 24 h” value was determined as 93565. Further, in data set [1] (48 h), the “average radiation intensity of YK-101, times that of named substance” value is listed as 9.8 times; the “average radiation intensity of YK-107, times that of named substance” value came out at 11.9 times; the “average radiation intensity of YK-108, times that of named substance” value is 12.1 times; the “average radiation intensity, 48 h” value amounted to 19004. Besides, in data set [1] (7 d), the “average radiation intensity of YK-101, times that of named substance” value is 2.2 times; the “average radiation intensity of YK-107, times that of named substance” value is recorded as 2.4 times; the “average radiation intensity of YK-108, times that of named substance” value is 2.6 times; the “average radiation intensity, 7 d” value is 5457. Moreover, in data set [1] (setting [4]), the “expression amount of mRNA in mice of YK-101, times that of named substance” value was “up to 11 times” and the “expression amount of mRNA in mice of YK-107, times that of named substance” value was no more than 13 times. For the same molecule, in data set [2], the “Cell survival rate (%)” value amounted to 68.33%, the “cell survival rate lower than that of YK-101” value came to 21.79%, the “cell survival rate lower than that of YK-107” value is 22.12% and the “cell survival rate lower than that of YK-108” value is reported as 21.53%. Moreover, in data set [3], the “Relative light unit (RLU)” value is 1418926 RLU, the “Multiples (YK-101)” value is reported as 14.33, the “Multiples (YK-107)” value is 15.76 and the “Multiples (YK-108)” value came to 17.38. In data set [3], the “fluorescence absorption value, times that of HHMA” value was determined as 0.69 times; the “fluorescence absorption value, times that of Lipofectamine 3000” value is 1.32 times; the “Ratio relative to SM-102” value is given as 0.92; the “Fluc-mRNA expression signal intensity, times that of compound 21” value came out at 1.02 times. For the same molecule, the “fluorescence absorption value, times that of compound 23” value in data set [3] is on record as 1.10 times.

With `CCCCCCCCCCCOC(=O)CCCN(CCO)CCCCCCC(=O)OCCC(CCCCCC)CCCCCC` [YK-108, 3-hexylnonyl 7-(4-(undecyloxy)-4-oxobutyl)((2-hydroxyethyl)amino)heptanoate], in data set [1] (6 h), the “average radiation intensity, 6 h” value is 2017280. Moreover, in data set [1] (24 h), the “average radiation intensity, 24 h” value was found to be 1406010. Moreover, in data set [1] (48 h), the “average radiation intensity, 48 h” value worked out at 230360. Moreover, in data set [1] (7 d), the “average radiation intensity, 7 d” value is listed as 14194. Also, the “Cell survival rate (%)” value in data set [2] was 89.86%. Besides, in data set [3], the “Relative light unit (RLU)” value worked out at 24660507 RLU, the “Multiples (YK-101)” value amounted to 0.82, the “Multiples (YK-107)” value is on record as 0.91 and the “Multiples (YK-108)” value came to 1.00. Moreover, the “Ratio relative to SM-102” value in data set [3] is listed as 16.07.

For `CCCCCCCCCCOC(=O)CCCN(CCCO)CCCCCC(=O)OCC(CCCCCCCC)CCCCCCCC` [YK-107, 2-octyldecyl 6-(4-(decyloxy)-4-oxobutyl)((3-hydroxypropyl)amino)hexanoate], the “average radiation intensity, 6 h” value in data set [1] (6 h) stood at 1601250. In data set [1] (24 h), the “average radiation intensity, 24 h” value was 1302640. Moreover, in data set [1] (48 h), the “average radiation intensity, 48 h” value was determined as 226170. The “average radiation intensity, 7 d” value in data set [1] (7 d) came to 13288. Moreover, the “Cell survival rate (%)” value in data set [2] was found to be 90.45%. In data set [3], the “Relative light unit (RLU)” value is listed as 22361210 RLU, the “Multiples (YK-101)” value came out at 0.91, the “Multiples (YK-107)” value was 1.00 and the “Multiples (YK-108)” value is on record as 1.10. Further, the “Ratio relative to SM-102” value in data set [3] came to 14.58.

`CCCCCCCCCCOC(=O)CCCN(CCCO)CCCCCC(=O)OCCC(CCCCCC)CCCCCC` [YK-102, 3-hexylnonyl-6-(4-(decyloxy)-4-oxobutyl)((3-hydroxypropyl)amino)hexanoate]: in data set [1] (6 h), the “average radiation intensity of YK-101, times that of named substance” value is given as 2.3 times; the “average radiation intensity of YK-107, times that of named substance” value is 2.5 times; the “average radiation intensity of YK-108, times that of named substance” value is recorded as 3.1 times; the “average radiation intensity, 6 h” value was determined as 652680. Further, in data set [1] (24 h), the “average radiation intensity of YK-101, times that of named substance” value is 10.5 times; the “average radiation intensity of YK-107, times that of named substance” value is recorded as 13.0 times; the “average radiation intensity of YK-108, times that of named substance” value is recorded as 14.0 times; the “average radiation intensity, 24 h” value came out at 100422. Also, in data set [1] (48 h), the “average radiation intensity of YK-101, times that of named substance” value is 6.1 times; the “average radiation intensity of YK-107, times that of named substance” value is given as 7.4 times; the “average radiation intensity of YK-108, times that of named substance” value amounted to 7.6 times; the “average radiation intensity, 48 h” value is given as 30507. Moreover, in data set [1] (7 d), the “average radiation intensity of YK-101, times that of named substance” value is reported as 1.9 times; the “average radiation intensity of YK-107, times that of named substance” value is reported as 2.1 times; the “average radiation intensity of YK-108, times that of named substance” value turned out to be 2.2 times; the “average radiation intensity, 7 d” value amounted to 6477. In data set [2], the “Cell survival rate (%)” value is 51.82%, the “cell survival rate lower than that of YK-101” value was found to be 38.30%, the “cell survival rate lower than that of YK-107” value is 38.63% and the “cell survival rate lower than that of YK-108” value is listed as 38.04%. Moreover, in data set [3], the “Relative light unit (RLU)” value is on record as 1464032 RLU, the “Multiples (YK-101)” value is given as 13.89, the “Multiples (YK-108)” value is given as 16.84 and the “Ratio relative to SM-102” value was 0.95.
